Data on three compounds can be found in patent US5804576A, “Derivatives of 5-androsten-17-ones and 5-androstan-17-ones” (Research Corporation Technologies, Inc., priority 1986, dated 1998).

Data set [1] has as its system mammalian glucose-6-phosphate dehydrogenase (G6PDH). As to conditions: cited from earlier work.
The test system of data set [2] is 3H-thymidine incorporation in mouse epidermis. Conditions: in vivo; cited from earlier work.
Data set [3] has as its system Epstein-Barr virus-induced transformation of human lymphocytes. Conditions: cited from earlier work.
The test system of the next data set is mouse breast epithilum. Conditions: in vivo; cited from earlier work.
For data set [4], the target named is T1, purified bovine adrenal G6PDH (Bos taurus, UniProt F1MMK2).
T1 construct: full-length, wild type, no tag
Description: Inhibition of purified bovine adrenal G6PDH. The format is biochemical. As to conditions: read-out: Percent Inhibition (G6PDH); for inhibition at 0.1 µM: Conc. 0.1 μm; for inhibition at 1 µM: Conc. 1 μm; for inhibition at 10 µM: Conc. 10 μm. The method in brief: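 Inhibition of purified bovine adrenal G6PDH enzyme activity, run by the published Oertel and Rebelein (1969) procedure.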

In data set [5] the test system is TPA (Tumor Promoter) Stimulation of Mouse Epidermal DNA. In words: Inhibition of TPA stimulation of mouse epidermal DNA synthesis (3H-thymidine incorporation), oral. The class given is in vivo, mouse (ICR male). The text has this:
Synthesis rate by orally administered steroids.
The inhibition of tumor promoter stimulation of mouse epidermal DNA synthesis rate by steroids may also contribute to cancer preventive activity. The following assay is used:
(§1) ICR male mice (7-9 weeks old) were shaved on the back 1-2 days before use. Only mice showing no hair regrowth were used. Animals were orally intubated with a particular steroid suspended by homogenization in sesame oil or with sesame oil alone (controls). One hour later TPA (10 μg in 0.2 ml of acetone) or acetone vehicle was applied topically to the shaved skin. Twenty hours later, mice were injected i.p. with 60 μCi of ^3 H-thymidine 20 minutes before sacrifice. The animals were killed by cervical dislocation and the residual hair was removed with a depilatory agent. Epidermal scrapings were prepared according to the procedures of Hennings et al. (Cancer Res. 28, 53, 1968), homogenized in distilled water at 4° C., and the macromolecules precipitated with 0.4N trichloroacetic acid (TCA). Following 6 washes with absolute ethanol at room temperature, the nucleic acids were hydrolyzed with 0.5N TCA at 70° C. for 5 minutes. The hydrolysate (0.2 ml aliquots) were counted in an Intertechnique scintillation counter and assayed for DNA by the diphenylamine reaction.
(§2) The data are expressed as counts per minute (cpm) of tritium per μg of DNA.
A similar oral dose-response experiment with compound 16 and DHEA was performed.
Both of the above tests, i.e., the inhibition of mammalian glucose-6-phosphate dehydrogenase (G6PDH) and the inhibition of tumor promoter (TPA) stimulation of ^3 H-thymidine incorporation in mouse epidermis are recognized as indicators of cancer prophylactic activity. The following Table compares the efficacy of representative compounds of the present invention in these two tests with that of DHEA:
Male ICR mice were orally intubated with steroid suspended in sesame oil (0.5 ml/mouse) at the indicated dose. Mice not receiving steroid were given sesame oil alone. One hour later mice received topical application of TPA and 20 hours later the rate of ^3 H-thymidine incorporation into the epidermis was determined as described in Table 4.
Male ICR mice were orally intubated with steroid suspended in sesame oil (0.5 ml/mouse) at the indicated dose. Mice not receiving steroid were given sesame oil alone. One hour later mice received topical application of TPA, and 20 hours later the rate of ^3 H-thymidine incorporation into the epidermis was determined as described in Table 4.

A short description of data set [6]: Anti-obesity test (body weight, food consumption). As to conditions: n = 5. The class given is in vivo, mouse (male A/J). The method in brief: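 Male A/J mice, 5 weeks old on arrival, housed 5 per cage at 24 °C on a 12 h light/dark cycle, were given steroid in chow from one week after arrival; dietary concentrations were varied, or 0.54% or 0.36%. Body weight and food consumption (food added minus remaining) were recorded weekly.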

A further data set relates to rat uterus. Description: Uterotrophic test, subcutaneous (Compound 2 vs. DHEA). The format is in vivo. As to conditions: for Mean Uterine Weight: n = 4 or 5. As for the experimental part:
Twenty-two day old rats were obtained from Charles River Laboratories. Animals were used at 29 days of age. Test steroids were suspended by homogenization in sesame oil. Rats were orally intubated at 1-2 P.M. for 3 days with a test steroid in sesame oil or with sesame oil alone (control). On the 4th day the animals were killed and the uteri were removed and weighed.
Compound 2 vs. DHEA. Compounds Administered by Subcutaneous Injection
Steroids were dissolved in 2 ml ethanol and brought up to 5 ml volume with propylene glycol. Concentrations were such that 1 μl/gm body weight delivered the indicated dose.

For data set [7], the system named is TPA stimulation in DNA synthesis rate (mouse epidermis). Description: Inhibition of TPA stimulation of mouse epidermal DNA synthesis, intraperitoneal. The class given is in vivo, mouse (ICR male). As to conditions: i.p. dose-response. How it is done: as §1, §2
Compound 2 or 3 in comparison with DHEA by Intraperitoneal Injection.
Steroids were suspended in sterile 95% saline--5% Emulphor and injected intraperitoneally. Otherwise conditions were the same as when steroids were orally administered.

Like-named read-outs stand apart in the source and are kept apart here.

T1 sequence (F1MMK2 31-70): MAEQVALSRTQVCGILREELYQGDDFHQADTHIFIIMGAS
T1 sequence (F1MMK2 101-575): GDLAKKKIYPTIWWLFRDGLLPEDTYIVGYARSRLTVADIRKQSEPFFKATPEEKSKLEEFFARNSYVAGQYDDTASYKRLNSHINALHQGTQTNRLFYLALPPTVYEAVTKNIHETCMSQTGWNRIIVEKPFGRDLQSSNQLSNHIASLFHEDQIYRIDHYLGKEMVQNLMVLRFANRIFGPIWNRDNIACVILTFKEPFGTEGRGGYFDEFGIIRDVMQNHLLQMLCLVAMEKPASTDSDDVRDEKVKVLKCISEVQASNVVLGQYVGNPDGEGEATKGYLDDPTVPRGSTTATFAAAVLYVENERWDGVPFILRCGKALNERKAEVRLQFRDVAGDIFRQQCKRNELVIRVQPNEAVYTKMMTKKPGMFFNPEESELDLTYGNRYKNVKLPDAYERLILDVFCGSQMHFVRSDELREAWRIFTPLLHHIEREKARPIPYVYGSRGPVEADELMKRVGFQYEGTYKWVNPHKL

As for `C[C@]12CC[C@H](O)C[C@@H]1CC[C@@H]1[C@@H]2CC[C@]2(C)C(=O)[C@H](Br)C[C@@H]12` [16α-bromo-epiandrosterone, 3β-hydroxy-16α-bromo-5α-androstan-17-one], the “inhibition of mammalian G6PDH (in words)” value in [1] was “more potent inhibitor of mammalian G6PDH than DHEA”; in [1] (listed as 16α-Br-epiandrosterone), “more active than DHEA in inhibiting G6PDH”. Also, in data set [2], the “3H-thymidine incorporation in mouse epidermis (in words)” value is on record as “more active than DHEA”. Also, the “inhibition of Epstein-Barr virus-induced transformation (in words)” value in [3] was “inhibitors of Epstein-Barr virus-induced transformation of human lymphocytes”. The “rate of [3H] thymidine incorporation into breast epithelium (in words)” value in the data set on mouse breast epithilum is “more active than DHEA”.

Turning to `C[C@]12CC[C@H](O)C[C@@H]1CC[C@@H]1[C@@H]2CC[C@]2(C)C(=O)CC[C@@H]12` [Compound 2], the inhibition at 0.1 µM in data set [4] is 36%. Further, the inhibition at 1 µM in [4] is 64%. Also, the inhibition at 10 µM in data set [4] was found to be 82%. Besides, the “blocking the TPA stimulation in DNA synthesis rate (in words)” value in data set [5] (200 mg/kg or 100 mg/kg oral) is listed as “not active at 200 mg/kg or 100 mg/kg”. In addition, the mean weekly weight in data set [6] (0.35% of diet, week 0) came to 21.8 ± 1.6 grams; in data set [6] (0.35% of diet, week 1), 21.8 ± 1.3 grams; in data set [6] (0.35% of diet, week 2), 22.0 ± 1.2 grams; in data set [6] (0.35% of diet, week 3), 22.8 ± 1.3 grams; in data set [6] (0.35% of diet, week 4) it was 24.2 ± 1.1 grams; in data set [6] (0.35% of diet, week 5) it was 24.4 ± 1.7 grams. The mean weekly weight in data set [6] (0.35% of diet, week 6) was 24.8 ± 1.5 grams; in data set [6] (0.35% of diet, week 7) it was 25.4 ± 1.7 grams; in data set [6] (0.7% of diet, week 0) it was 21.3 ± 1.8 grams; in data set [6] (0.7% of diet, week 1), 20.6 ± 2.3 grams; in [6] (0.7% of diet, week 2) it was 20.6 ± 0.5 grams; in [6] (0.7% of diet, week 3), 20.8 ± 0.8 grams. Besides, the mean weekly weight in [6] (0.7% of diet, week 4) is given as 22.6 ± 0.6 grams; in data set [6] (0.7% of diet, week 5) it was 22.4 ± 0.5 grams; in data set [6] (0.7% of diet, week 6), 23.5 ± 0.9 grams; in data set [6] (0.7% of diet, week 7) it was 23.8 ± 0.8 grams. In addition, the “Mean Uterine Weight” value is given as 151 ± 32 Mgs in the data set on rat uterus (10 mg/kg s.c.) and 127 ± 32 Mgs in the data set with rat uterus (60 mg/kg s.c.). Further, the “estrogenic activity (in words)” value in the data set on rat uterus (rat uterotrophic test, s.c.) is “Neither compounds 16 nor 2 are estrogenic”. For the same compound, the “blocking the TPA stimulation in DNA synthesis rate, compared with DHEA (in words)” value in data set [7] is listed as “about as active as DHEA”.

Consider `C[C@]12CCCC[C@@H]1CC[C@@H]1[C@@H]2CC[C@]2(C)C(=O)CC[C@@H]12` [Compound 3], for which, in [4], the inhibition at 0.1 µM worked out at 10%. Further, in [4], the inhibition at 1 µM is 69%. In addition, the inhibition at 10 µM in data set [4] is 80%. In data set [5] (200 mg/kg oral), the “activity compared with DHEA, TPA stimulation (in words)” value is on record as “somewhat more active than DHEA”. Further, the mean weekly weight in data set [6] (0.35% of diet, week 0) worked out at 21.8 ± 2.2 grams; in data set [6] (0.35% of diet, week 1), 22.6 ± 1.8 grams; in data set [6] (0.35% of diet, week 2), 23.6 ± 1.8 grams; in [6] (0.35% of diet, week 3), 24.8 ± 1.8 grams; in data set [6] (0.35% of diet, week 4), 24.6 ± 1.8 grams; in data set [6] (0.35% of diet, week 5), 24.8 ± 1.9 grams. The mean weekly weight is recorded as 21.6 ± 2.6 grams in [6] (0.7% of diet, week 0); 20.0 ± 1.9 grams in data set [6] (0.7% of diet, week 1); 21.3 ± 1.8 grams in [6] (0.7% of diet, week 2); 21.8 ± 1.6 grams in [6] (0.7% of diet, week 3); 22.0 ± 1.6 grams in data set [6] (0.7% of diet, week 4); 21.4 ± 1.1 grams in data set [6] (0.7% of diet, week 5). Also, the “blocking the TPA stimulation in DNA synthesis rate, compared with DHEA (in words)” value in [7] is “more active in blocking the TPA stimulation in DNA synthesis rate”.
